Several values for one entry are separate records, joined by “and”; a condition that tells them apart may be missing. Equal entries are not always repeated.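 Briefly, cells in 96-well plates were exposed to five compound concentrations for 48 h, and endpoints were estimated by linear interpolation. GI50 is the concentration that inhibits growth by half. TGI: concentration producing complete growth inhibition.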
Assays:
Experiment in all cases: NCI anticancer screen, dose series, 48 h
UACC-62 melanoma = system: UACC-62 melanoma
U251 CNS = system: U251 CNS
A549 NSCLC = system: A549 NSCLC
SF-295 CNS = system: SF-295 CNS
KM20L2 colon = system: KM20L2 colon
LXFL 529 NSCLC = system: LXFL 529 NSCLC
OVCAR-3 ovarian = system: OVCAR-3 ovarian
A498 renal = system: A498 renal
NCI/ADR-RES ovarian = system: NCI/ADR-RES ovarian
PC-3 prostate = system: PC-3 prostate

| SMILES | TGI (UACC-62 melanoma) | TGI (U251 CNS) | TGI (A549 NSCLC) | TGI (SF-295 CNS) | TGI (KM20L2 colon) | TGI (LXFL 529 NSCLC) | TGI (OVCAR-3 ovarian) | TGI (A498 renal) | GI50 (UACC-62 melanoma) | GI50 (U251 CNS) | GI50 (NCI/ADR-RES ovarian) | TGI (NCI/ADR-RES ovarian) | GI50 (A549 NSCLC) | GI50 (PC-3 prostate) | TGI (PC-3 prostate) | GI50 (SF-295 CNS) | GI50 (OVCAR-3 ovarian) | GI50 (A498 renal) |
| --- | --- | --- | --- | --- | --- | --- | --- | --- | --- | --- | --- | --- | --- | --- | --- | --- | --- | --- |
| N/N=C(\c1nc2ccc(Cl)cc2[nH]c1=O)C(O)c1ccc(Cl)c(Cl)c1 (stereo not given) | > 100 µM | > 100 µM | > 100 µM | > 100 µM | > 100 µM | > 100 µM | > 100 µM | – | – | – | – | – | – | – | – | – | – | – |
| O=S(=O)(N=NC=C1c2ccccc2N(O)c2ccccc21)c1ccc(Cl)cc1 | > 100 µM | > 100 µM | > 100 µM | > 100 µM | > 100 µM | > 100 µM | > 100 µM | > 100 µM | – | – | – | – | – | – | – | – | – | – |
| Cc1ccc(S(=O)(=O)c2ccc(C)cc2[N+](=O)[O-])cc1 | > 100 µM | > 100 µM | > 100 µM | > 100 µM | > 100 µM | > 100 µM | > 100 µM | > 100 µM | – | – | – | – | – | – | – | – | – | – |
| COC(=O)/C(C#N)=C(\N)C(Cl)(Cl)Cl | 2.86 µM | 31.7 µM | 12.7 µM | 19.4 µM | > 100 µM | 9.73 µM | 12.9 µM | 8.22 µM | – | – | – | – | – | – | – | – | – | – |
| CC(=O)NNc1nc(C)c(C(=O)/C=C/c2ccc(Cl)cc2)s1 | > 100 µM | > 100 µM | > 100 µM | > 100 µM | > 100 µM | – | > 100 µM | > 100 µM | – | – | – | – | – | – | – | – | – | – |
| CCOC(=O)C1=C(C)N(NC(N)=O)C2(N)N(NC(N)=O)C(C)=C(C(=O)OCC)C12C(=O)OCC (stereo not given) | > 100 µM | > 100 µM | > 100 µM | > 100 µM | > 100 µM | > 100 µM | > 100 µM | > 100 µM | – | – | – | – | – | – | – | – | – | – |
| COC1CCC(OC)C(C2(C3CC(OC)CCC3OC)OC(=O)c3ccccc32)C1 (stereo not given) | > 100 µM | > 100 µM | > 100 µM | > 100 µM | > 100 µM | – | > 100 µM | > 100 µM | – | – | – | – | – | – | – | – | – | – |
| O=c1oc2cc(OC/C(=N/O)c3ccc(F)cc3)ccc2c2ccccc12 | 33 µM | 45.5 µM | 45.7 µM | 41.5 µM | – | – | 40.6 µM | 37.7 µM | 17.6 µM | 20.9 µM | 18 µM | 36.2 µM | 18.2 µM | 22.1 µM | 49.1 µM | 18.4 µM | 17.6 µM | 22 µM |
| CCCCCCCCCCCCCCCCOP(=O)([O-])OCC[N+](C)(C)C | – | – | – | 53 µM | – | – | 14.8 µM and 48.4 µM | 5.24 µM and 37.4 µM | 1.34 µM | 1.05 µM | 11.1 µM | 23.2 µM and 58.7 µM | 1.6 µM | 0.277 µM | 1.51 µM and 7.73 µM | – | 3.74 µM | 1.13 µM |
| O=C(CI)Nc1ccc(O)c2ccccc12 | 3.44 µM | 3.11 µM | 13.7 µM | 11.3 µM | – | – | 2.23 µM | 9.12 µM | 1.67 µM | 1.57 µM | 2.97 µM | 14.8 µM | 3.56 µM | 2.38 µM | 9.69 µM | 3.38 µM | 0.857 µM | 2.37 µM |
| O=CN1N=C(c2cccc(Nc3ccnc4cc(Cl)ccc34)c2)CC1c1ccccc1 (stereo not given) | 21.8 µM | 1.55 µM | > 26.2 µM | 1.66 µM | – | – | 0.774 µM | 1.1 µM | 0.444 µM | 0.358 µM | 0.29 µM | 1.17 µM | 0.501 µM | 0.306 µM | 42.7 µM | 0.306 µM | 0.269 µM | 0.23 µM |
| Cn1nc(C(F)(F)F)c(-c2cc(C(F)(F)F)cc(C(F)(F)F)c2)c1-c1ccc(OCc2ccc(Cl)cc2)cc1O | 4.05 µM | 12.1 µM | 11.7 µM | 7.3 µM | – | – | 10.7 µM | 5.13 µM | 1.45 µM | 2.38 µM | 2.81 µM | 9.8 µM | 3.18 µM | 1.88 µM | 11.5 µM | 2.31 µM | 2.27 µM | 1.31 µM |
| COc1cc2c(cc1OC)C1Cc3ccc(OC)c(OC)c3C[N+]1([O-])CC2 (stereo not given) | – | > 100 µM | > 100 µM | > 100 µM | > 100 µM | > 100 µM | > 100 µM | > 100 µM | – | – | – | – | – | – | – | – | – | – |
| COc1cc(OC)c(OC)cc1/C=C/c1cnnc2ccccc12 | > 10 µM | > 10 µM | > 10 µM | > 10 µM | – | – | > 10 µM | > 10 µM | – | – | – | > 10 µM | – | – | > 10 µM | – | – | – |
| O=C(c1ccccc1)c1c(C(F)(F)F)n([O-])c2cc(C(F)(F)F)ccc2[n+]1=O | 3.32 µM | 2.97 µM | 3.48 µM | 2.97 µM | – | – | 3.11 µM | 5.22 µM | 1.73 µM | 1.54 µM | 2.01 µM | 5.12 µM | 1.72 µM | 1.19 µM | 2.54 µM | 1.57 µM | 1.61 µM | 2.22 µM |
| CCCCCCCC(=O)SCC/C=C/[C@@H]1CC(=O)NCc2nc(cs2)C2=N[C@@](C)(CS2)C(=O)N[C@@H](C(C)C)C(=O)N1 | 0.165 µM | 0.364 µM | 1.53 µM | 0.402 µM | – | – | 0.806 µM | 0.333 µM | < 0.01 µM | 0.0318 µM | 26.7 µM | > 100 µM | 0.0273 µM | < 0.0125 µM | > 100 µM | 0.0392 µM | 0.015 µM | 0.0244 µM |
| CC(=O)/C=C/C1=C(c2csc3ccccc23)c2ccccc2CC1 | 30.5 µM | > 100 µM | > 100 µM | 65.2 µM | – | – | 43.3 µM | 50.2 µM | 12.8 µM | 31.1 µM | 21.8 µM | 72.7 µM | 24 µM | 29.9 µM | > 100 µM | 21 µM | 13.6 µM | 22.4 µM |
| O=C1CNC(=O)c2[nH]cnc2N1 | > 100 µM | > 100 µM | > 100 µM | > 100 µM | – | > 100 µM | > 100 µM | > 100 µM | – | – | – | – | – | – | – | – | – | – |
| C[C@H]1CNC(=O)c2cnn3ccc(nc23)N[C@H](C)c2cc(F)ccc2O1 | 39 µM | > 100 µM | 16.4 µM | 8.15 µM | – | – | 19.6 µM | 0.886 µM | 2.32 µM | 3.36 µM | 8.63 µM | 47.4 µM | 0.937 µM | 1.53 µM | > 67 µM | 0.595 µM | 1.32 µM | 0.216 µM |
